Data taken from PubChem BioAssay (NCI).
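GI50: concentration for 50% inhibition of growth. TGI is the concentration that stops growth completely.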

Experiments:
Assay in all cases: NCI anticancer screen, dose series, 384-well format
T-47D breast = tested on: T-47D breast
NCI-H460 NSCLC = tested on: NCI-H460 NSCLC
LOX IMVI melanoma = tested on: LOX IMVI melanoma
DU-145 prostate = tested on: DU-145 prostate
SNB-19 CNS = tested on: SNB-19 CNS
UACC-62 melanoma = tested on: UACC-62 melanoma
OVCAR-3 ovarian = tested on: OVCAR-3 ovarian
UO-31 renal = tested on: UO-31 renal
A549 NSCLC = tested on: A549 NSCLC
M14 melanoma = tested on: M14 melanoma
U251 glioblastoma = tested on: U251 glioblastoma
HOP-62 NSCLC = tested on: HOP-62 NSCLC
IGROV1 ovarian = tested on: IGROV1 ovarian
SF-268 CNS = tested on: SF-268 CNS
COLO 205 colon = tested on: COLO 205 colon
HS 578T breast = tested on: HS 578T breast
MOLT-4 leukemia = tested on: MOLT-4 leukemia
SF-539 CNS = tested on: SF-539 CNS
SR leukemia = tested on: SR leukemia
RXF 393 renal = tested on: RXF 393 renal
BT-549 breast = tested on: BT-549 breast
SK-OV-3 ovarian = tested on: SK-OV-3 ovarian
SF-295 CNS = tested on: SF-295 CNS
786-0 renal = tested on: 786-0 renal
OVCAR-8 ovarian = tested on: OVCAR-8 ovarian
MDA-MB-435 melanoma = tested on: MDA-MB-435 melanoma
EKVX NSCLC = tested on: EKVX NSCLC
MDA-MB-468 breast = tested on: MDA-MB-468 breast
PC-3 prostate = tested on: PC-3 prostate
CAKI-1 renal = tested on: CAKI-1 renal
HL-60(TB) leukemia = tested on: HL-60(TB) leukemia
OVCAR-5 ovarian = tested on: OVCAR-5 ovarian
SK-MEL-5 melanoma = tested on: SK-MEL-5 melanoma
SW-620 colon = tested on: SW-620 colon
MCF7 breast = tested on: MCF7 breast
SNB-75 CNS = tested on: SNB-75 CNS
NCI-H322M lung = tested on: NCI-H322M lung
ACHN renal = tested on: ACHN renal
OVCAR-4 ovarian = tested on: OVCAR-4 ovarian
HT29 colon = tested on: HT29 colon
HCC-2998 colon = tested on: HCC-2998 colon
A498 renal = tested on: A498 renal
NCI-H226 lung = tested on: NCI-H226 lung
RPMI-8226 leukemia = tested on: RPMI-8226 leukemia
SK-MEL-28 melanoma = tested on: SK-MEL-28 melanoma
MDA-MB-231 breast = tested on: MDA-MB-231 breast
NCI/ADR-RES ovarian = tested on: NCI/ADR-RES ovarian
TK-10 renal = tested on: TK-10 renal
HCT-116 colon = tested on: HCT-116 colon
NCI-H23 lung = tested on: NCI-H23 lung
HOP-92 NSCLC = tested on: HOP-92 NSCLC
MALME-3M melanoma = tested on: MALME-3M melanoma
KM12 colon = tested on: KM12 colon
NCI-H522 lung = tested on: NCI-H522 lung
HCT-15 colon = tested on: HCT-15 colon
UACC-257 melanoma = tested on: UACC-257 melanoma
SN12C renal = tested on: SN12C renal

`COc1cc2nccc(Oc3ccc(NC(=O)Nc4cc(C)on4)c(Cl)c3)c2cc1OC` was tested, and the GI50 (T-47D breast) was 4.17 µM, the TGI (T-47D breast) was 23.1 µM and the GI50 (NCI-H460 NSCLC) was 4.58 µM. It also gave a TGI (NCI-H460 NSCLC) of 19 µM, a GI50 (LOX IMVI melanoma) of 4.08 µM and a TGI (LOX IMVI melanoma) of 11 µM. The GI50 (DU-145 prostate) was 5.63 µM, the TGI (DU-145 prostate) was 81.3 µM and the GI50 (SNB-19 CNS) was 16.6 µM. For the same compound, the TGI (SNB-19 CNS) was > 100 µM, the GI50 (UACC-62 melanoma) was 2.9 µM and the TGI (UACC-62 melanoma) was 13.5 µM. It also gave a GI50 (OVCAR-3 ovarian) of 5.25 µM, a TGI (OVCAR-3 ovarian) of 20.1 µM and a GI50 (UO-31 renal) of 2.75 µM. The TGI (UO-31 renal) was 5.98 µM, the GI50 (A549 NSCLC) was 3.25 µM and the TGI (A549 NSCLC) was 11 µM. It also gave a GI50 (M14 melanoma) of 3.72 µM, a TGI (M14 melanoma) of 15.3 µM and a GI50 (U251 glioblastoma) of 9.48 µM. The TGI (U251 glioblastoma) was > 100 µM, the GI50 (HOP-62 NSCLC) was 9.77 µM and the TGI (HOP-62 NSCLC) was > 100 µM. It also gave a GI50 (IGROV1 ovarian) of 2.22 µM, a TGI (IGROV1 ovarian) of 5.21 µM and a GI50 (SF-268 CNS) of 3.06 µM. The TGI (SF-268 CNS) was 8.86 µM, the GI50 (COLO 205 colon) was 2.59 µM and the TGI (COLO 205 colon) was 8.26 µM. For the same compound, the GI50 (HS 578T breast) was 2.08 µM, the TGI (HS 578T breast) was 7.41 µM and the GI50 (MOLT-4 leukemia) was 1.45 µM. For the same compound, the TGI (MOLT-4 leukemia) was 2.99 µM, the GI50 (SF-539 CNS) was 1.24 µM and the TGI (SF-539 CNS) was 2.95 µM. The GI50 (SR leukemia) was 3.73 µM, the TGI (SR leukemia) was 5.34 µM and the GI50 (RXF 393 renal) was 1.65 µM. It also gave a TGI (RXF 393 renal) of 4.28 µM, a GI50 (BT-549 breast) of 3.2 µM and a TGI (BT-549 breast) of 7.18 µM. It also gave a GI50 (SK-OV-3 ovarian) of 6.78 µM, a TGI (SK-OV-3 ovarian) of 67.1 µM and a GI50 (SF-295 CNS) of 3.18 µM. It also gave a TGI (SF-295 CNS) of 11.5 µM, a GI50 (786-0 renal) of 3.79 µM and a TGI (786-0 renal) of 12 µM. The GI50 (OVCAR-8 ovarian) was 4.45 µM, the TGI (OVCAR-8 ovarian) was 41 µM and the GI50 (MDA-MB-435 melanoma) was 7.46 µM. It also gave a TGI (MDA-MB-435 melanoma) of 73.4 µM, a GI50 (EKVX NSCLC) of 4.4 µM and a TGI (EKVX NSCLC) of 20.9 µM. The GI50 (MDA-MB-468 breast) was 3.51 µM, the TGI (MDA-MB-468 breast) was 8.5 µM and the GI50 (PC-3 prostate) was 6.29 µM. The TGI (PC-3 prostate) was > 100 µM, the GI50 (CAKI-1 renal) was 2.67 µM and the TGI (CAKI-1 renal) was 6.87 µM. For the same compound, the GI50 (HL-60(TB) leukemia) was 2.87 µM, the TGI (HL-60(TB) leukemia) was 5.3 µM and the GI50 (OVCAR-5 ovarian) was 4.4 µM. The TGI (OVCAR-5 ovarian) was 21.2 µM, the GI50 (SK-MEL-5 melanoma) was 3.35 µM and the TGI (SK-MEL-5 melanoma) was 11.8 µM. The GI50 (SW-620 colon) was 2.82 µM, the TGI (SW-620 colon) was 7.18 µM and the GI50 (MCF7 breast) was 4.99 µM. For the same compound, the TGI (MCF7 breast) was 31.6 µM, the GI50 (SNB-75 CNS) was 2.53 µM and the TGI (SNB-75 CNS) was 6.7 µM. The GI50 (NCI-H322M lung) was 3.91 µM, the TGI (NCI-H322M lung) was 13.9 µM and the GI50 (ACHN renal) was 3.53 µM. It also gave a TGI (ACHN renal) of 11.6 µM, a GI50 (OVCAR-4 ovarian) of 5.71 µM and a TGI (OVCAR-4 ovarian) of 25 µM. For the same compound, the GI50 (HT29 colon) was 3.17 µM, the TGI (HT29 colon) was 12.1 µM and the GI50 (HCC-2998 colon) was 23.9 µM. It also gave a TGI (HCC-2998 colon) of 91.9 µM, a GI50 (A498 renal) of 5.6 µM and a TGI (A498 renal) of 21 µM. It also gave a GI50 (NCI-H226 lung) of 0.906 µM, a TGI (NCI-H226 lung) of 3.39 µM and a GI50 (RPMI-8226 leukemia) of 3.79 µM. For the same compound, the TGI (RPMI-8226 leukemia) was 15.1 µM, the GI50 (SK-MEL-28 melanoma) was 4.26 µM and the TGI (SK-MEL-28 melanoma) was 21 µM. For the same compound, the GI50 (MDA-MB-231 breast) was 2.38 µM, the TGI (MDA-MB-231 breast) was 6.83 µM and the GI50 (NCI/ADR-RES ovarian) was 2.9 µM. For the same compound, the TGI (NCI/ADR-RES ovarian) was 8.81 µM, the GI50 (TK-10 renal) was 19.9 µM and the TGI (TK-10 renal) was > 100 µM. For the same compound, the GI50 (HCT-116 colon) was 3.51 µM, the TGI (HCT-116 colon) was 11.5 µM and the GI50 (NCI-H23 lung) was 2.65 µM. For the same compound, the TGI (NCI-H23 lung) was 7.77 µM, the GI50 (HOP-92 NSCLC) was 1.7 µM and the TGI (HOP-92 NSCLC) was 3.33 µM. For the same compound, the GI50 (MALME-3M melanoma) was 1.81 µM, the TGI (MALME-3M melanoma) was 4.39 µM and the GI50 (KM12 colon) was 0.346 µM. The TGI (KM12 colon) was > 100 µM, the GI50 (NCI-H522 lung) was 2.51 µM and the TGI (NCI-H522 lung) was 6.54 µM. For the same compound, the GI50 (HCT-15 colon) was 4.16 µM, the TGI (HCT-15 colon) was > 100 µM and the GI50 (UACC-257 melanoma) was 11.9 µM. The TGI (UACC-257 melanoma) was 30.3 µM, the GI50 (SN12C renal) was 2.95 µM and the TGI (SN12C renal) was 9.88 µM.
